Source: patent US6133299A, “Methods for treating neurodegenerative diseases and disorders using N-(2,6-disubstituted aromatic)-N'-pyridinyl ureas and other anticonvulsant compounds” (Warner-Lambert Company, priority 1993, dated 2000)

How the values were obtained:
Hippocampal Slices [1] = assay: Recovery of synaptic activity (EPSP) in hippocampal slices after hypoxia-hypoglycemia (Example 4); type: cell-based, rat (male Wistar); settings: for recovery of EPSPs, overall effect: concentrations tested in Table 2
Experimental: Young male Wistar rats (150 to 250 g) were anesthetized with ketamine (200 mg/kg IP) and ether and were perfused transcardially with cold, oxygenated, low sodium-containing physiological buffer solution (252 mM sucrose, 3.5 mM KCl, 1.0 mM MgSO4, 20 mM CaC1, 26 mM NaHCO3, 1.25 mM NaH2 PO4, and 10 mM glucose) with 50 μM ketamine added. Brains were removed and hippocampi carefully excised. Hippocampi were sliced transversely at 450 μm and transferred into cold (4° C.) low-sodium buffer solution gassed with 95% O2, 5% CO2 at 31° C. After 45 minutes slices were transferred to oxygenated normal physiological solution (126 mM NaCl, 3.5 mM KCl, 1.0 mM MgSO4, 2.0 mM CaCl2, 20 mM NaHCO3, 1.25 mM NaH2 PO4, and 10 mM glucose) at 31° C. for at least 1 hour before experiments began. After preincubation, slices were transferred to a heated (36° C.), gassed incubation chamber where they were continuously superfused with gassed normal physiological solution. Evoked extracellular synaptic potentials (EPSPs) were obtained using glass micropipettes placed approximately 100 μm into the slice. Electrical stimulation was applied once per minute to the stratum radiatum by insulated paired nichrome wires (60 μm diameter). Stimuli consisted of 150 μA pulses lasting 0.4 msec. […] Data from a slice were used only if EPSP amplitude was greater than 2.0 mV before hypoxia-hypoglycemia.
Evoked potentials were recorded and analyzed with a digital computer interface. Experiments were started by recording for several minutes under normal conditions (95% O2, 5% CO2, 10 mM glucose). Then drug was added to the superfusion solution (or normal solution was continued in control experiments). After 10 minutes of drug superfusion, hypoxia-hypoglycemia was induced by switching to superfusion solution containing added drug with low glucose (2 mM) that was equilibrated with 95% N2 and 5% CO2. At the same time the slice chamber gas was switched to 95% N2 and 5% CO2. Hypoxia-hypoglycemia was continued for 12 minutes. After 12 minutes, 95% O2 and 10 mM glucose were returned to the slices and the superfusing solution. Following 15 minutes of reoxygenation, the experiment was ended. EPSPs were considered recovered if they returned to at least half of their original amplitude. The percentage of slices with recovered EPSPs were calculated for each condition.
This study was identical in design to Example 3 except that during the hypoxic period of 12 minutes, glucose was reduced from 10 mM to 2 mM rather than from 10 mM to zero as in Example 3.

Hippocampal Slices [2] = assay: Effect on synaptic potentials / presynaptic action potential in slices before hypoxia; type: cell-based, rat (male Wistar); settings: 500 μM
Experimental: Young male Wistar rats (150 to 250 g) were anesthetized with ketamine (200 mg/kg IP) and ether and were perfused transcardially with cold, oxygenated, low sodium-containing physiological buffer solution (252 mM sucrose, 3.5 mM KCl, 1.0 mM MgSO4, 20 mM CaC1, 26 mM NaHCO3, 1.25 mM NaH2 PO4, and 10 mM glucose) with 50 μM ketamine added. Brains were removed and hippocampi carefully excised. Hippocampi were sliced transversely at 450 μm and transferred into cold (4° C.) low-sodium buffer solution gassed with 95% O2, 5% CO2 at 31° C. After 45 minutes slices were transferred to oxygenated normal physiological solution (126 mM NaCl, 3.5 mM KCl, 1.0 mM MgSO4, 2.0 mM CaCl2, 20 mM NaHCO3, 1.25 mM NaH2 PO4, and 10 mM glucose) at 31° C. for at least 1 hour before experiments began. After preincubation, slices were transferred to a heated (36° C.), gassed incubation chamber where they were continuously superfused with gassed normal physiological solution. Evoked extracellular synaptic potentials (EPSPs) were obtained using glass micropipettes placed approximately 100 μm into the slice. […]
Evoked potentials were recorded and analyzed with a digital computer interface. […] The percentage of slices with recovered EPSPs were calculated for each condition.
Excitatory synaptic potential (EPSP) amplitude was measured before and during drug treatment in the 10-minute period preceding reduced oxygen and glucose. […]

[3] = system: neuroprotective capabilities; assay: Neuroprotective capabilities in vitro (general statement); type: cell-based
[4] = system: voltage-dependent sodium channels; settings: cited from earlier work
[5] = in vivo; cited from earlier work
[6] = system: Neuronal/Glial Cortical Cultures; assay: Hypoxia-induced lactate dehydrogenase release (cell injury) in neuronal/glial cortical cultures; type: cell-based, rat (Sprague Dawley); settings: Rattus norvegicus, read-out: % Inh (percent inhibition of the release of lactate dehydrogenase in comparison to hypoxic control cultures)
Experimental: An assay was conducted to compare the inhibitory action of various compounds which are the subject of the present invention. The assay measured the oxygen deprivation-induced neuronal cell death from various cortical cultures. Lactate dehydrogenase (LDH) is a cytosolic enzyme that is only present in the extracellular medium if cell membranes rupture, indicating cell death. Therefore, LDH release into the culture medium is a convenient assay of cell death. The results of Table 3 indicate that each of the compounds tested decreased neuronal cell death from hypoxia in vitro.
The uteri of Sprague Dawley rats in their 18th day of fetal gestation were removed under halothane anesthesia and placed in a chilled bath of magnesium and calcium-free Hank's balanced salt solution (HBSS). Cortical brain hemispheres were removed from individual fetuses and digested in 0.1% trypsin in HBSS for 15 minutes at room temperature. Digested tissue was washed three times with HBSS then dissociated into a single cell suspension by trituration with a glass pipette. […] One hundred microliters of this cell suspension was pipetted into individual wells of 96-well tissue culture plates previously coated with poly-L-lysine, then stored in a humidified incubator (37° C., 3% CO2). Glial cell growth was stopped by the addition of 100 μL of 45% DME, 45% HAM F12, and 10% Horse serum (10/0 DME/F12) containing 15 μg/mL of 5-fluoro-2-deoxyuridine and 35 μg/mL of uridine, 3 days after the initial plating. Cultures were fed at 2- or 3-day intervals thereafter by replacing 100 μL of spent medium with an identical volume of fresh 10/0 DME/F12.
Sixteen-day-old cultures were prepared for experiments by removing growth medium from each culture well and rinsing once with 250 μL of Mg^++ -free HBSS containing 1.8 mM Ca^++ and 1 g/L D-glucose (0 Mg-HBSS) Control and test agent solutions, prepared using 0 Mg-HBSS medium, were dispensed in 50 μL aliquots into individual test wells (Total volume/well=50 μL). All liquid medium preparations to this point were equilibrated with […], 5% CO2. Plates were placed into a 37° C., humidified, triple-gas incubator with O2 and CO2 levels maintained at 1% and 10%, respectively. Plates were removed after 7.5 hours of oxygen deprivation and restored to normoxic conditions (20% O2 /10% CO2, 37° C.) following a 50 μL addition to each well of appropriate control or test agent solutions containing 1.8 mM Ca^++, 1.6 mM Mg^++, and 7.0 g/L D-glucose. Final medium concentrations of 1.8 mM Ca^++, 0.8 mM Mg^++, and 4 g/L D-glucose were present during the reoxygenation period.
Medium concentrations of lactate dehydrogenase (LDH), a cytosolic enzyme normally retained by cells but released upon cell death, were determined for each well following an additional 16.5-hour normoxic exposure period. Individual 25 μL medium specimens were collected from each well and placed into wells of a clean 96-well microtiter plate containing 225 μL of 0.1 M KPO4 buffer (pH=7.5 at 25° C.) and 30 μg NADH (reduced […] adenine dinucleotide). After 10-minute incubation at 37° C., 30 μL of 2.4 mM sodium pyruvate was added to each well and plates were gently shaken to mix solution. Plates were immediately placed into a Multiscan MCC/340 plate reader and scanned for […] (excitation at 340 nm) for 1 minute at 5-second intervals. A kinetic analysis of the change in medium absorbance resulting from shifts in NADH concentrations was used, in combination with factors to correct for temperature, light path, and volume adjustments to determine medium LDH concentrations (IU/mL). Normoxic control baseline LDH levels were subtracted from both hypoxic control and test agent values prior to determining test agent effectiveness in preventing oxygen deprivation-induced injury.

[7] = system: neuronal damage from ischemia; settings: in vitro and in vivo; cited from earlier work
calcium channels = settings: concentrations similar to those tested; cited from earlier work

SMILES	Number Slices Recovered / Number Slices Tested (≥50% EPSP amplitude recovery after reoxygenation) (Hippocampal Slices [1]; 50 μM)	Number Slices Recovered / Number Slices Tested (≥50% EPSP amplitude recovery after reoxygenation) (Hippocampal Slices [1]; 200 μM)	protection from loss of EPSPs (Hippocampal Slices [1]; 200 μM)	recovery of EPSPs, overall effect (Hippocampal Slices [1])	recovery of EPSPs, overall effect (Hippocampal Slices [1]; listed as lidocaine)	effect on presynaptic action potential and EPSPs (Hippocampal Slices [2])	neuroprotective capabilities [3]	action on voltage-dependent sodium channels [4]	peripheral hypotensive effects [5]	Number Slices Recovered / Number Slices Tested (≥50% EPSP amplitude recovery after reoxygenation) (Hippocampal Slices [1]; 5 μM)	Number Slices Recovered / Number Slices Tested (≥50% EPSP amplitude recovery after reoxygenation) (Hippocampal Slices [1]; 20 μM)	inhibition at 30 µM ([6]; 30 μM) [%]	inhibition at 100 µM ([6]; 100 μM) [%]	effect on neuronal damage from ischemia [7]	action on calcium channels (calcium channels)
CCN(CC)CC(=O)Nc1c(C)cccc1C [Lidocaine, lidocaine]	5/9	9/10	almost complete protection	improves recovery of EPSPs at both concentrations tested	enhanced recovery of EPSPs	reversibly reduced both presynaptic action potential and EPSPs	shown in vitro to have neuroprotective capabilities	more selective for sodium channels	peripheral hypotensive effects						
O=C1NC(=O)C(c2ccccc2)(c2ccccc2)N1 [Phenytoin, phenytoin]	3/9			enhanced recovery of EPSPs			shown in vitro to have neuroprotective capabilities			0/8	5/12	78	82	preventing neuronal damage from ischemia both in vitro and in vivo	blocks a variety of calcium channels
